Experimental data published in patent US20250003952A1, “SENOLYTIC DRUG SCREENING METHOD AND SENOLYTIC DRUG” (KYOTO UNIVERSITY, priority 2021, published 2025).

Assays:
[1] = test system: mice models; conditions: Chang et al., 2016, Childs et al.; cited from earlier work
[2] = test system: Chk1 kinase; experiment: S280 phosphorylation of Chk1 kinase by Western blot in H1299 cells; format: cell-based; conditions: 10 μM for 48 hours
Procedure: When each inhibitor (U126 and BI-D1870) was administered to cancer cells, PGAM-Chk1 kinase binding was inhibited, and glycolytic metabolism decreased (Mikawa et al., 2020). RSK kinase was already known to directly control the phosphorylation of the S280 residue of Chk1 kinase (Li et al., 2012, Mol Biol Cell 23, 1582-1592). […] Specifically, cancer cell line H1299 cells were treated with the MEK kinase inhibitor (U126) at a concentration of 10 μM for 48 hours. The treated cells were collected, and proteins were extracted and then Western blotted. It was confirmed that the S280 phosphorylation of Chk1 kinase was suppressed although the protein level of Chk1 kinase was not changed. In addition, the present inventors prepared S280A mutants of Chk1 kinase. […] Specifically, PGAM and Chk1 kinase genes tagged with Nano-Bit tags were introduced into IMR90 cells to prepare a cell line capable of stable expression. At this time, three types of Chk1, i.e., wild-type Chk1 and S280A mutant Chk1 or S280D mutant Chk1, were each introduced into the cells. An oncogenic mutated Ras gene was introduced into these cells by retroviral infection to acquire stress senescent cells. The obtained senescent cells were used to measure intracellular luciferase luminescence signals by Nano-Bit for each.

[3] = test system: PGAM-Chk1 kinase binding; conditions: cancer cells; Mikawa et al., 2020; cited from earlier work
[4] = molecular target: T1, PGAM-Chk1 binding (Homo sapiens, UniProt O14757+P18669); experiment: PGAM-Chk1 binding by anti-Chk1 immunoprecipitation and anti-PGAM Western blotting in Ras-induced senescent IMR90 cells; format: cell-based
T1 construct: endogenous in cells; host or cells: IMR90 human primary fibroblasts made senescent by retroviral oncogenic Ras
T1 sequence (P18669 2-254 limits assumed): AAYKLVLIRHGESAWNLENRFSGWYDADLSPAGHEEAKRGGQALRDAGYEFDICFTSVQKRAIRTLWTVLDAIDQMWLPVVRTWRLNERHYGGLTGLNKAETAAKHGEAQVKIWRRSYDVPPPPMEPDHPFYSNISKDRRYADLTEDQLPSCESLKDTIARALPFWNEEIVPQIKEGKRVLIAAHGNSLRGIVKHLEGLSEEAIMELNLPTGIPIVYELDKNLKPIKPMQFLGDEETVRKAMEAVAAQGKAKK
T1 sequence (O14757 1-476): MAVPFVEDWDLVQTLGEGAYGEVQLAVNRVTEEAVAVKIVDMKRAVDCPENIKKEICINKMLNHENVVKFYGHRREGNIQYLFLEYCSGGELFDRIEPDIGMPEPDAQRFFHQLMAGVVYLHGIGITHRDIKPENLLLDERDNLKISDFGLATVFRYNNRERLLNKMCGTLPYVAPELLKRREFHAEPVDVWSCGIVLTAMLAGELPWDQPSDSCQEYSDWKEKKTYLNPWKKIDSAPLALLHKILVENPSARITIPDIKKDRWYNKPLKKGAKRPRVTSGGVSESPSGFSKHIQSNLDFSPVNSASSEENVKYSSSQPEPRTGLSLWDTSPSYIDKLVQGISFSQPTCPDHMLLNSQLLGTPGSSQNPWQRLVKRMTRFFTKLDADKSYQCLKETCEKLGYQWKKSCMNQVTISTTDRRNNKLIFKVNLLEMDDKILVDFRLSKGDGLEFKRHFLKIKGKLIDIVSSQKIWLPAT
Procedure: Human primary fibroblasts, IMR90 cells, were obtained from the JCRB Cell Bank. An oncogenic Ras mutation was retrovirally introduced into young cells (within 1 month of continuous culture) of the IMR90 cells to induce cellular senescence. […] After that, these cells were treated with MG132 for 6 hours, and cell lysates were prepared. The obtained cell lysates were immunoprecipitated with an anti-Chk1 antibody. The resulting immunoprecipitate was used for Western blotting with an anti-PGAM antibody to evaluate PGAM-Chk1 binding.
Next, in the same manner as above, IMR90 cells were used to prepare stress-induced senescent cells by introducing an oncogenic mutated Ras gene. The senescent cells were transfected with an RSK1 siRNA (SEQ ID NO: 7) or a control to knock down RSK1. The resulting cells were collected, and proteins were extracted. The resulting protein extract was immunoprecipitated with an anti-Chk1 antibody. The resulting immunoprecipitate was used for Western blotting with an anti-PGAM antibody to evaluate PGAM-Chk1 binding.

[5] = test system: glycolytic metabolism; experiment: Glycolytic metabolism (glucose consumption, lactate production) in etoposide-induced senescent IMR90 cells; format: cell-based, human; conditions: 20 μM or 40 μM for 48 hours
Procedure: Next, young cells (within 1 month of continuous culture) of the IMR90 cells were treated with 100 μM etoposide for 48 hours to acquire senescent cells. […] After the nutlin treatment, the medium was collected, and glucose consumption was evaluated and lactate production was measured. The lactate level is calculated as a value (μmol/mg/h) obtained by measuring the amount of lactate secreted into the medium per hour (μmol/h) and correcting the same by the total cell protein (mg) and is expressed as a value relative to the actual value on day 0. The glucose consumption is calculated as a value (μmol/mg/h) obtained by measuring the amount of glucose decreased from the medium per hour (μmol/h) and correcting the same by the total cell protein (mg) and is expressed as a value relative to the actual value on day 0. Glucose and lactate were measured by using a Glucose assay kit (BioVision) (upper diagram in FIG. 8) and a Lactate assay kit (BioVision) (lower diagram in FIG. 8), respectively.

[6] = molecular target: T2, PGAM-Chk1 binding (Homo sapiens, UniProt O14757+P18669); experiment: Nano-Bit PGAM-Chk1 binding in cancer cell line H1299; format: cell-based; conditions: H1299 cells; 40 μM for 12, 24, and 48 hours
T2 construct: expressed in transfected cells
From the text: PGAM and Chk1 kinase genes tagged with Nano-Bit tags were introduced into the cancer cell line H1299 to prepare a cell line capable of stable expression. […] The treated cells were used to measure intracellular luciferase luminescence signals by Nano-Bit for each.
T2 sequence (P18669 whole entry, one chain of several): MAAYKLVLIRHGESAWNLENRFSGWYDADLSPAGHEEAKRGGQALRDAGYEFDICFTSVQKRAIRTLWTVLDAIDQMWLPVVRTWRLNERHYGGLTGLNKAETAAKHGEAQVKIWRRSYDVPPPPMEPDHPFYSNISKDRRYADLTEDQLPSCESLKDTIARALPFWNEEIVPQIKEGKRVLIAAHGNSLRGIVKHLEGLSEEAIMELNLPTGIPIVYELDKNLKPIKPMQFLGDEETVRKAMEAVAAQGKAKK

[7] = test system: p53; experiment: p53 activation (Western blot of p53 and p21) in young IMR90 cells; format: cell-based, human; conditions: 20 μM for 48 hours
From the text: After the treatment, proteins were extracted from the cells to carry out Western blotted.

[8] = test system: IMR90 cells; experiment: Senolysis / cell death of young and Ras-induced senescent IMR90 cells; format: cell-based, human
From the text: Ras gene with oncogenic mutation was introduced into young cells (within 1 month of continuous culture) of IMR90 cells by retroviral infection to acquire senescent cells. […] The control received only DMSO treatment. Representative images of cells observed under a microscope are shown (FIG. 11).
An oncogenic mutated Ras gene was introduced into young cells (within 1 month of continuous culture) of IMR90 cells by retroviral infection to acquire stress-induced senescent cells. The young cells and the senescent cells were both treated with different concentrations of the RSK kinase inhibitor BI-D1870 for 96 hours to evaluate cell death.
An oncogenic mutated Ras gene was introduced into young cells (within 1 month of continuous culture) of IMR90 cells by retroviral infection to acquire stress-induced senescent cells. The young cells and the senescent cells of IMR90 were both transfected with an RSK1 siRNA (two types of siRNA #1 (SEQ ID NO: 7) or #2 (SEQ ID NO: 8) having different target sequences) or a control to knock down RSK1. Representative images of cells observed under a microscope are shown (upper diagram in FIG. 20).
An oncogenic Ras was introduced into young cells (within 1 month of continuous culture) of IMR90 cells to induce senescent cells (OIS). The young cells and the senescent cells of IMR90 were transfected with two HIF-2α-specific siRNAs (SEQ ID NO: 9 and SEQ ID NO: 10) having different target sequences to knock down HIF-2α.
An oncogenic Ras was introduced into young cells (within 1 month of continuous culture) of IMR90 cells to induce senescent cells (OIS). The young cells and the senescent cells of IMR90 were transfected with a BIM-specific siRNA to knock down BIM.
An oncogenic Ras was introduced into young cells (within 1 month of continuous culture) of IMR90 cells to induce senescent cells (OIS). In the young cells and the senescent cells of IMR90, HIF-2α alone or both HIF-2α and BIM were knocked down by using their respective specific siRNAs (SEQ ID NO: 9, SEQ ID NO: 10), and cell death was confirmed (FIG. 28).
The latter information consists of 12,655 ChIP datasets from 903 antigens (transcription factors and epigenetic regulators).

[9] = test system: BIM gene; experiment: BIM gene expression in Ras-induced senescent IMR90 cells; format: cell-based, human; conditions: senescent (OIS) IMR90 cells; HIF-2α knockdown by siRNA
Procedure: An oncogenic Ras was introduced into young cells (within 1 month of continuous culture) of IMR90 cells to induce senescent cells (OIS).
An oncogenic Ras was introduced into young cells (within 1 month of continuous culture) of IMR90 cells to induce senescent cells (OIS). The senescent cells were transfected with an HIF-2α-specific siRNA (SEQ ID NO: 9) to knock down HIF-2α. After that, the expression of the BIM gene, which is an apoptosis-inducing gene, was analyzed (FIG. 26).

[10] = test system: Chk1 kinase; experiment: S280 phosphorylation of Chk1 kinase after RSK1 knockdown in senescent IMR90 cells; format: cell-based, human; conditions: Ras-induced senescent IMR90 cells; RSK1 knockdown by siRNA

CC1(C)CCC(c2ccc(Cl)cc2)=C(CN2CCN(c3ccc(C(=O)NS(=O)(=O)c4ccc(N[C@H](CCN5CCOCC5)CSc5ccccc5)c(S(=O)(=O)C(F)(F)F)c4)cc3)CC2)C1 [ABT263]
aging-relevant dysfunctions and artherosclerosis [1]: alleviated

N#CC(=C(/N)Sc1ccccc1N)/C(C#N)=C(/N)Sc1ccccc1N [U126]
S280 phosphorylation of Chk1 kinase [2]: suppressed
protein level of Chk1 kinase [2]: not changed
PGAM-Chk1 kinase binding [3]: inhibited
glycolytic metabolism [3]: decreased

COc1ccc(C2=N[C@@H](c3ccc(Cl)cc3)[C@@H](c3ccc(Cl)cc3)N2C(=O)N2CCNC(=O)C2)c(OC(C)C)c1 [nutlin 3a]
PGAM-Chk1 binding (interaction) ([4]; 20 μM or 40 μM for 48 hours, then MG132 6 hours): inhibit PGAM-Chk1 interaction to the same extent
glucose consumption [5]: suppressed in a dose-dependent manner
lactate production [5]: suppressed in a dose-dependent manner
luciferase luminescence signal by Nano-Bit (PGAM-Chk1 binding) [6]: treatment time-dependent decrease
protein level of p21 [7]: markedly increased
protein level of p53 [7]: markedly increased
cell death observed under a microscope ([8]; young and Ras-induced senescent IMR90 cells, 40 μM for 72 hours): cell death and cell number decrease were observed in both the young cells and the senescent cells

HIF-2α-specific siRNA (SEQ ID NO: 9): HIF-2α-specific siRNA, SEQ ID NO: 9 (CACCUACUGUGAUGACAGA; listed as RNA, chemistry not given here)
cell death after HIF-2α knockdown ([8]; young and Ras-induced senescent (OIS) IMR90 cells, siRNA transfection): selective cell death (senolysis)
expression of the apoptosis-inducing gene BIM [9]: increased

RSK1 siRNA #1: RSK1 siRNA including the sequence of SEQ ID NO: 7 (CACUGAUUCUGAAGGCGAA; listed as RNA, chemistry not given here)
PGAM-Chk1 binding ([4]; RSK1 knockdown by siRNA): inhibition of PGAM-Chk1
senolysis phenomenon with knockdown of RSK1 ([8]; young and Ras-induced senescent IMR90 cells, siRNA transfection): young cells are normal, but senescent cells selectively die
S280 phosphorylation of Chk1 kinase [10]: decreased
